Laboratory results taken from patent publication US20250304550A1, “BROMODOMAIN AND EXTRA-TERMINAL (BET) SUBFAMILY BROMODOMAIN 1 (BD1) SELECTIVE INHIBITORS AND METHODS USING SAME” (Baylor College of Medicine, priority 2022, published 2025).

Columns and labels:
[1] = Metabolic stability assay in mouse liver microsomes; assay type: in vitro ADME
[2] = Metabolic stability assay in human liver microsomes; assay type: in vitro ADME
BRDT-BD1 = BRDT-BD1 (Homo sapiens (Human), UniProt Q58F21); experiment: AlphaScreen bromodomain proximity assay (biotinylated JQ1 competition); assay type: binding; settings: for IC50: AlphaScreen; for BRDT-BD1 vs. BRDT-BD2 fold: BD1 selectivity, AlphaScreen IC50 ratio; for fold loss of selectivity BRDT-BD1 over BRDT-BD2: compared to compound 2
BRD4-BD1 = BRD4-BD1 (Homo sapiens (Human), UniProt O60885); experiment: as above; assay type: binding; settings: for BRD4-BD1 vs. BRD4-BD2 fold: BD1 selectivity, AlphaScreen IC50 ratio
[3] = system: BRD4-dependent AML cell lines; experiment: Cell viability testing (CellTiterGlo, 72 hours) in AML cell lines; assay type: cell-based
BRDT-BD2 = BRDT-BD2 (Homo sapiens (Human), UniProt Q58F21); experiment: AlphaScreen bromodomain proximity assay (biotinylated JQ1 competition); assay type: binding; settings: in Table 4 '—' = not efficient
BRD4-BD2 = BRD4-BD2 (Homo sapiens (Human), UniProt O60885); experiment: as above; assay type: binding; settings: in Table 4 '—' = not efficient
NanoLuc-BET BD1 = experiment: NanoBRET target engagement intracellular BET bromodomain assay in HEK293 cells; assay type: cell-based, human; settings: transiently transfected HEK293 cells
BD2 = settings: background statement; cited from earlier work
[4] = 0.5 mg protein/mL, compound 2.0 μM, NADPH 1.0 mM

SMILES	IC50 (BRDT-BD1)	BRDT-BD1 vs. BRDT-BD2 fold (BRDT-BD1)	IC50 (BRD4-BD1; AlphaScreen)	IC50 (BRDT-BD2)	BRD4-BD1 vs. BRD4-BD2 fold (BRD4-BD1)	IC50 (BRD4-BD2)	also measured
Cc1nnc2n1-c1ccc(Cl)cc1C(c1ccccc1)=NC2 [Alprazolam, reference compound]							MLM t1/2 [1, 4]: 5.03 h; HLM t1/2 [2, 4]: 14.4 h
CNC(=O)C(CC1CCN(C(=O)Cc2ccc3[nH]c(=O)cc(C)c3c2)CC1)NC(=O)c1ccc(-c2ccc(C)cc2C)cn1 (centres unmarked) [Compound 1, 5-(2,4-dimethylphenyl)-N-(3-(1-(2-(4-methyl-2-oxo-1,2-dihydroquinolin-6-yl)acetyl)piperidin-4-yl)-1-(methylamino)-1-oxopropan-2-yl)picolinamide]	0.0057 µM	2246 fold					
CNC(=O)[C@H](CC1CCN(C(=O)Cc2ccc3[nH]c(=O)cc(C)c3c2)CC1)NC(=O)c1ccc(-c2ccc(C)cc2C)cn1 [Compound 3, (S)-5-(2,4-dimethylphenyl)-N-(3-(1-(2-(4-methyl-2-oxo-1,2-dihydroquinolin-6-yl)acetyl)piperidin-4-yl)-1-(methylamino)-1-oxopropan-2-yl)picolinamide]	0.0966 µM	65 fold					fold greater affinity for BRD4-BD1 than BRDT-BD1 (BRD4-BD1; AlphaScreen): 4 fold; cellular potency in AML cell lines (in words) [3]: minimal effect
CNC(=O)[C@H](CC1CCN(C(=O)Cc2ccc3[nH]c(=O)cc(C)c3c2)CC1)NC(=O)c1ccc(-c2ccccc2)cn1 [Compound 5, (S)-N-(3-(1-(2-(4-methyl-2-oxo-1,2-dihydroquinolin-6-yl)acetyl)piperidin-4-yl)-1-(methylamino)-1-oxopropan-2-yl)-5-phenylpicolinamide]							cellular potency in AML cell lines (in words) [3]: minimal activity
CNC(=O)[C@H](CC1CCN(C(=O)Cc2ccc3[nH]c(=O)cc(C)c3c2)CC1)NC(=O)c1ccc(C(F)(F)F)cn1 [Compound 7, (S)-N-(3-(1-(2-(4-methyl-2-oxo-1,2-dihydroquinolin-6-yl)acetyl)piperidin-4-yl)-1-(methylamino)-1-oxopropan-2-yl)-5-(trifluoromethyl)picolinamide]	0.0038 µM		0.0074 µM				
CNC(=O)[C@@H](CC1CCN(C(=O)Cc2ccc3[nH]c(=O)cc(C)c3c2)CC1)NC(=O)c1ccc(-c2ccc(Cl)cc2)cn1 [Compound 8, (R)-5-(4-chlorophenyl)-N-(3-(1-(2-(4-methyl-2-oxo-1,2-dihydroquinolin-6-yl)acetyl)piperidin-4-yl)-1-(methylamino)-1-oxopropan-2-yl)picolinamide]	0.0051 µM	6,633 fold	0.0128 µM	33.8 µM	1,553 fold	19.9 µM	
CNC(=O)[C@@H](CC1CCN(C(=O)Cc2ccc3[nH]c(=O)cc(C)c3c2)CC1)NC(=O)c1ccc(-c2ccc(Cl)c(F)c2)cn1 [Compound 9, (R)-5-(4-chloro-3-fluorophenyl)-N-(3-(1-(2-(4-methyl-2-oxo-1,2-dihydroquinolin-6-yl)acetyl)piperidin-4-yl)-1-(methylamino)-1-oxopropan-2-yl)picolinamide]	0.0047 µM	4,799 fold	0.0098 µM	22.6 µM	1,423 fold	14 µM	
CNC(=O)C(CC1CCN(C(=O)Cc2ccc3[nH]c(=O)cc(C)c3c2)CC1)NC(=O)c1ccccn1 (centres unmarked) [Compound 11, N-(3-(1-(2-(4-methyl-2-oxo-1,2-dihydroquinolin-6-yl)acetyl)piperidin-4-yl)-1-(methylamino)-1-oxopropan-2-yl)picolinamide]	0.0202 µM	960 fold	0.0157 µM	19.4 µM	2,078 fold	32.6 µM	fold loss of selectivity BRDT-BD1 over BRDT-BD2 (BRDT-BD1): 5 fold
CNC(=O)C(CC1CCN(C(=O)Cc2ccc3[nH]c(=O)cc(C)c3c2)CC1)NC(=O)c1ccc(C(F)(F)F)cn1 (centres unmarked) [Compound 12, N-(3-(1-(2-(4-methyl-2-oxo-1,2-dihydroquinolin-6-yl)acetyl)piperidin-4-yl)-1-(methylamino)-1-oxopropan-2-yl)-5-(trifluoromethyl)picolinamide]	0.014 µM	513 fold	0.0069 µM	7.19 µM	1,275 fold	8.8 µM	
Cc1ccc(-c2ccc(C(=O)NC(C)CC3CCN(C(=O)Cc4ccc5[nH]c(=O)cc(C)c5c4)CC3)nc2)c(C)c1 (centres unmarked) [Compound 14, 5-(2,4-dimethylphenyl)-N-(1-(1-(2-(4-methyl-2-oxo-1,2-dihydroquinolin-6-yl)acetyl)piperidin-4-yl)propan-2-yl)picolinamide]	0.031 µM	756 fold	0.0524 µM	23.4 µM	381 fold	20 µM	fold loss of selectivity BRDT-BD1 over BRDT-BD2 (BRDT-BD1): 6.5 fold
Cc1ccc(-c2ccc(C(=O)NCCC3CCN(C(=O)Cc4ccc5[nH]c(=O)cc(C)c5c4)CC3)nc2)c(C)c1 [Compound 15, 5-(2,4-dimethylphenyl)-N-(2-(1-(2-(4-methyl-2-oxo-1,2-dihydroquinolin-6-yl)acetyl)piperidin-4-yl)ethyl)picolinamide]	0.0337 µM	2012 fold	0.0278 µM	67.8 µM	312 fold	8.69 µM	
Cc1cc(=O)[nH]c2ccc(CC(=O)N3CCC(CCNC(=O)c4ccccn4)CC3)cc12 [Compound 16, N-(2-(1-(2-(4-methyl-2-oxo-1,2-dihydroquinolin-6-yl)acetyl)piperidin-4-yl)ethyl)picolinamide]	0.0354 µM	192 fold	0.0138 µM	6.8 µM	5,449 fold	75.2 µM	
Cc1cc(=O)[nH]c2ccc(CC(=O)N3CCC(CCNC(=O)c4ccccc4)CC3)cc12 [Compound 17, N-(2-(1-(2-(4-methyl-2-oxo-1,2-dihydroquinolin-6-yl)acetyl)piperidin-4-yl)ethyl)benzamide]	0.148 µM	70 fold	0.0479 µM	10.4 µM			
Cc1cc(=O)[nH]c2ccc(CC(=O)N3CCC(CCNC(=O)c4ccc5ccccc5n4)CC3)cc12 [Compound 18, N-(2-(1-(2-(4-methyl-2-oxo-1,2-dihydroquinolin-6-yl)acetyl)piperidin-4-yl)ethyl)quinoline-2-carboxamide]	0.0813 µM		0.122 µM				
Cc1cc(=O)[nH]c2ccc(CC(=O)N3CCC(CCNC(=O)c4cc5ccccc5cn4)CC3)cc12 [Compound 19, N-(2-(1-(2-(4-methyl-2-oxo-1,2-dihydroquinolin-6-yl)acetyl)piperidin-4-yl)ethyl)isoquinoline-3-carboxamide]	0.116 µM		0.119 µM				
Cc1cc(=O)[nH]c2ccc(CC(=O)N3CCC(CCNC(=O)c4nccc5ccccc45)CC3)cc12 [Compound 20, N-(2-(1-(2-(4-methyl-2-oxo-1,2-dihydroquinolin-6-yl)acetyl)piperidin-4-yl)ethyl)isoquinoline-1-carboxamide]	0.638 µM		0.341 µM				
Cc1cc(=O)[nH]c2ccc(CC(=O)N3CCN(CCNC(=O)c4ccccn4)CC3)cc12 [Compound 21, N-(2-(4-(2-(4-methyl-2-oxo-1,2-dihydroquinolin-6-yl)acetyl)piperazin-1-yl)ethyl)picolinamide]	5.2 µM	13.8 fold	1.3 µM	71.8 µM			
Cc1sc2c(c1C)C(c1ccc(Cl)cc1)=N[C@@H](CC(=O)OC(C)(C)C)c1nnc(C)n1-2 [JQ1, tert-butyl (S)-2-(4-(4-chlorophenyl)-2,3,9-trimethyl-6H-thieno[3,2-f][1,2,4]triazolo[4,3-a][1,4]diazepin-6-yl)acetate, reference compound]							metabolic stability in mouse liver microsomes (in words) ([1]; mouse, microsomes): labile; inhibition of tracer binding, BD1 vs BD2 (in words) (NanoLuc-BET BD1): binds both BD1 and BD2 equally; half-life in human liver microsomes (in words) ([2]; human, microsomes): quite low
COc1cc(OC)c2c(=O)[nH]c(-c3cc(C)c(OCCO)c(C)c3)nc2c1 [RVX-208]							BD2 potency (BD2): > 0.1 µM; selectivity over BD1 domains (BD2): ~10 fold
